# Source: patent publication US20250171452A1 (Viscient Bio, Inc., priority 2022, published 2025)
# Structures can show the parent of a compound that is named as a salt.
# Target: IDO2 (Homo sapiens (Human), UniProt Q6ZQW0)
# Assay: Cellular IDO2 assay, doxycycline and 5-methoxy-L-tryptophan medium, colorimetric
# Format: cell-based
# Conditions: cellular level, 72 h incubation, signal at 480 nm
# Sequence of IDO2 (Q6ZQW0 whole entry, species assumed): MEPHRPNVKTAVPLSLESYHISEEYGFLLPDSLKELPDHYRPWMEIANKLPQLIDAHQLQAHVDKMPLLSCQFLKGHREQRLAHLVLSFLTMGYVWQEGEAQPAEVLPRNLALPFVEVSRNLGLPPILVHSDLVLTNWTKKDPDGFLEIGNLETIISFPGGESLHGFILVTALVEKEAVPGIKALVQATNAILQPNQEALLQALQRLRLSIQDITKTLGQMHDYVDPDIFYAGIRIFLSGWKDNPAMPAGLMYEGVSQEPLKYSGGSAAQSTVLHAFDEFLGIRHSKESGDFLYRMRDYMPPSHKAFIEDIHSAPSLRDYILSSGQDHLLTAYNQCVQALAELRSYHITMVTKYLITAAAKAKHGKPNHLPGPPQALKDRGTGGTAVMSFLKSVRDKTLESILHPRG
row,IC50,SMILES
1,50 to 500 nM,N#Cc1ccc2c(c1)C(=O)c1nc3cc(F)cc(F)c3c(=O)n1-2 [Compound 114]
2,50 to 500 nM,"O=C1c2cc(F)ccc2-n2c1nc1c(NCc3ccc(F)cc3)cccc1c2=O [Compound 115, 8-Fluoro-4-((4-fluorobenzyl)amino)indolo[2,1-b]quinazoline-6,12-dione]"
3,50 to 500 nM,NS(=O)(=O)c1ccc2c(c1)C(=O)c1nc3c(Cl)cccc3c(=O)n1-2 [Compound 116]
4,< 50 nM,O=C1c2cc(SCc3ccccc3)ccc2-n2c1nc1c(Cl)cccc1c2=O [Compound 117]
5,< 50 nM,"N#Cc1ccc2c(c1)C(=O)c1nc3c(Nc4ccc(F)cc4)cccc3c(=O)n1-2 [Compound 119, 4-((4-Fluorophenyl)amino)-6,12-dioxo-6,12-dihydroindolo[2,1-b]quinazoline-8-carbonitrile]"
6,> 500 nM,"O=C1c2cc(SCc3ccccc3)ccc2-n2c1nc1c(Nc3ccc(F)cc3)cccc1c2=O [Compound 120, 8-(Benzylthio)-4-((4-fluorophenyl)amino)indolo[2,1-b]quinazoline-6,12-dione]"
7,50 to 500 nM,"O=C1c2cc(Br)ccc2-n2c1nc1c(Nc3ccc(F)cc3)cccc1c2=O [Compound 121, 8-bromo-4-((4-fluorophenyl)amino)indolo[2,1-b]quinazoline-6,12-dione]"
8,50 to 500 nM,O=C1c2cc(F)ccc2-n2c1nc1c(OCc3ccc(F)cc3)cccc1c2=O [Compound 124]
9,50 to 500 nM,O=C1c2cc(F)ccc2-n2c1nc1c(Nc3ccc(F)cc3)cccc1c2=O [Compound 125]
10,< 50 nM,CN(C)Cc1ccc2nc3n(c(=O)c2c1)-c1ccc(S(=O)(=O)Cc2ccccc2)cc1C3=O [Compound 127]
11,< 50 nM,CN(C)Cc1ccc2nc3n(c(=O)c2c1)-c1ccc(Br)cc1C3=O [Compound 128]
12,< 50 nM,CC1(CCC(=O)Nc2ccc3nc4n(c(=O)c3c2)-c2ccc(F)cc2C4=O)N=N1 [Compound 129]
13,> 500 nM,CN(C)Cc1ccc2nc3n(c(=O)c2c1)-c1ccc(SCc2ccccc2)cc1C3=O [Compound 130]
14,< 50 nM,"CO/N=C1/c2cc(C#N)ccc2-n2c1nc1ccc(CN3CCOCC3)cc1c2=O [Compound 131, (Z)-6-(methoxyimino)-2-(morpholinomethyl)-12-oxo-6,12-dihydroindolo[2,1-b]quinazoline-8-carbonitrile]"
15,< 50 nM,CO/N=C1/c2cc(F)ccc2-n2c1nc1ccc(-n3ccnc3)cc1c2=O [Compound 132]
16,< 50 nM,"O=C1c2cc(F)ccc2-n2c1nc1ccc(CBr)cc1c2=O [Compound 133, 2-(bromomethyl)-8-fluoroindolo[2,1-b]quinazoline-6,12-dione]"
17,50 to 500 nM,"CO/N=C1/c2cc(F)ccc2-n2c1nc1ccc(CNc3ccccn3)cc1c2=O [Compound 134, (Z)-8-fluoro-6-(methoxyimino)-2-((pyridin-2-ylamino)methyl)indolo[2,1-b]quinazolin-12(6H)-one]"
18,< 50 nM,"COc1cc(OC)nc(Nc2ccc3nc4n(c(=O)c3c2)-c2ccc(F)cc2C4=O)n1 [Compound 135, 2-((4,6-dimethoxypyrimidin-2-yl)amino)-8-fluoroindolo[2,1-b]quinazoline-6,12-dione]"
19,< 50 nM,"N#Cc1ccc2c(c1)C(=O)c1nc3ccc(CN4CCOCC4)cc3c(=O)n1-2 [Compound 136, 2-(morpholinomethyl)-6,12-dioxo-6,12-dihydroindolo[2,1-b]quinazoline-8-carbonitrile]"
20,< 50 nM,"O=C1c2cc(F)ccc2-n2c1nc1ccc(-n3ccnc3)cc1c2=O [Compound 137, 8-fluoro-2-(1H-imidazol-1-yl)indolo[2,1-b]quinazoline-6,12-dione]"
21,50 to 500 nM,"CO/N=C1/c2cc(F)ccc2-n2c1nc1ccc(CN(C)C)cc1c2=O [Compound 138, (Z)-2-((dimethylamino)methyl)-8-fluoro-6-(methoxyimino)indolo[2,1-b]quinazolin-12(6H)-one Trifluoroacetate Salt]"
